From patent US20250275938A1, “COMPOSITIONS AND METHODS FOR TREATMENT OF CANCER” (SCIROSBIO (FZC), priority 2022, published 2025)

Experiments:
[1] = system: intracellular ROS in C6 cells; experiment: ROS activity by DCF-DA, C6; format: cell-based, rat; conditions: IC50 concentrations, vs control
Description: (§1) Determination of ROS activity by DCF-DA. U87MG and C6 cells were seeded at 5×10^3 cells/well in 96 well plates. […] After the treatment period, monolayer cells were stained with DCF-DA stain, and the absorbance was read at 530 nm spectrophotometrically (Molecular Devices Spectra-Max M5, USA). This method is commonly used in ROS investigations and is based on the application of H2DCFDA (acetylated form of DCF), which is consecutively deacetylated inside the cells by intracellular esterase.

[2] = system: human breast cancer (MDA-MB-453) cells; experiment: MTT cell viability assay, MDA-MB-453; format: cell-based; conditions: 24 hours
Description: Cell lines and culture conditions: A human breast cancer cell line MDA-MB-453 and human bone cancer cell line SaoS2 were obtained from National Centre for Cell Science (NCCS), Pune, India. The MDA-MB-453 cells were sub-cultured in Dulbecco's Modified Eagle's Medium (DMEM) supplemented with 10% FBS at 5% CO2 and 37° C. The SaoS2 cells were sub-cultured in McCoy's 5A media supplemented with 10% FBS at 5% CO2 and 37° C. […] The cells were allowed to attach 70% to the surface prior to treatment. […] Suspensions were aspirated 10 times before treatment. Cells treated with vehicle control were used as a control. Cell viability assay: MDA-MB-453 and SaoS2 cells (5×10^3 cells/ml) were seeded in 96-well plates and exposed to different individual-drug treated groups with varying concentrations (0, 20, 40, 60, 80, 100, 120, 140, 160, 180 and 200 μM) for a period of 24 hours.

[3] = system: C6 glioma cells; experiment: AO/EtBr dual staining for apoptosis, C6; format: cell-based, rat; conditions: respective IC50 concentrations
Source text: AO/EtBr are fluorescent nuclear stains, which distinguish between live and dead cells based on their membrane integrity. AO intercalates in the DNA of live cells imparting green shade to the nucleus as an indica-tor of viability. In the case of the dead cell, EtBr intercalates along with AO, resulting in an orange appearance, with an increased orange appearance corresponding to a concomitant increase in the number of dead cells and vice versa.
After the treatment period, monolayer cells were stained with AO/EtBr stain (1 mg/ml) and were visualized immediately under a fluorescence microscope (Axiovert, Carl Zeiss) at 20× magnification.

[4] = system: U87MG human glioma cell line; experiment: MTT cell viability assay, U87MG; format: cell-based; conditions: for IC50: Homo sapiens, U-87 MG, individual drug, mean ± SD, no unit in table, test concentrations given in μM, read-out: Inhibitory Concentration at 50% (IC50) U87MG Cells; for IC50 / cell viability / anti-proliferative effect (MTT), in words: 24 hours; for cell viability / anti-proliferative effect (MTT), in words: U87MG
Description: Cell lines and culture conditions. A human glioma cell line, U87MG, a rat glioma cell line, C6, and normal HEK293T (Human Embryonic Kidney) cells were obtained from National Centre for Cell Science (NCCS), Pune, India. The cells were sub-cultured in Dulbecco's Modified Eagle's Medium (DMEM) supplemented with 10% FBS at 5% CO2 and 37° C. At 85% confluence, the cells were harvested using 0.25% trypsin and seeded in 25 cm^2 flasks, 96 well, and 6-well plates, according to the experiment being performed. The cells were allowed to attach 70% to the surface prior to treatment. A stock solution of all the drugs (10 mg/ml) was made in a vehicle and diluted to the required concentrations. Suspensions were aspirated 10 times before treatment. Cells treated with vehicle control were used as a control.
Cell viability assay. U87MG and C6 cells (5×10^3 cells/ml) were seeded in 96-well plates and exposed to different individual-drug treated groups with varying concentrations (0, 10, 40, 80, 120, and 160 μM) for a period of 24 hours, whereas HEK293T cells (5×10^3 cells/ml) were seeded at the inhibitory concentration (IC) at 50% of drugs, either alone or in combination. The individual-treated groups include Group I: untreated control glioma cells; Group II: TMZ-treated glioma cells; Group III: MET-treated glioma cells; and Group IV: EGCG-treated glioma cells.
After a 24 hour treatment period, the cells were allowed to react with MTT for 4 hours in dark at 37° C. At the end of the incubation period, the dark purple formazan crystals formed were solubilized with DMSO and the absorbance was measured spectrophotometrically at 595 nm (Molecular Devices Spectra-Max M5, USA). The experiments were repeated at least three times. To determine the cell viability, the percentage of viability was calculated as follows:
% viability=[(Optical density {OD} of treated cells−OD of Blank)/(OD of control−OD of blank)]×100.
Calculation of IC50 value. The IC50 of a drug was determined using y=m(x)+c equation (where: ‘y’ & ‘x’ are the respective coordinates of y & x-axis, ‘m’ is the slope and ‘c’ is the constant) derived from the trendlines of each scattered plots MMT assay. […] The IC50 and IC25 were also calculated for the dual combinations. The IC50 for the triple combination was calculated by keeping the IC25 of the dual-combination constant, and the third drug was used in varying concentrations (0, 10, 40, 80, 120, and 160 μM) (Table 1).
Combination index of drugs. According to the Chou-Talalay method, The statistical Combination Index (CI) of the drugs was performed according to the Chou-Talay method (Ma et al, Stem Cell Reports, 2017 9(6):1948-1960) to determine whether various drug combinations were synergistic, additive, or antagonistic, as shown in Table 1. This was performed for Groups V-IX using the following formula:
Combination index (CI) of Drugs 1 & 2=(IC50 of drug-1 in combination/IC50 of drug-1 individually)+(IC50 of drug-2 in combination/IC50 of drug-2 individually).

[5] = system: intracellular ROS in U87MG cells; experiment: ROS activity by DCF-DA, U87MG; format: cell-based, human; conditions: IC50 concentrations, vs control
Description: as §1

Row | Structure (SMILES) | intracellular ROS levels (DCF-DA fluorescence intensity) [1] | cell viability (MTT), in words [2] | apoptotic cell death (AO/EtBr) ([3]; hydrochloride) | apoptotic cell death (AO/EtBr) ([3]; listed as M, hydrochloride) | IC50 [4] [µM] | cell viability / anti-proliferative effect (MTT), in words [4] | IC25 U87MG ([4]; as used in the triple combination for CI) [µM] | intracellular ROS levels (DCF-DA fluorescence intensity) [5] | apoptotic cell death (AO/EtBr) [3] | apoptotic cell death (AO/EtBr) ([3]; listed as E) | cell viability / anti-proliferative effect (MTT), in words ([4]; listed as ECGC)
1 | CN(C)C(=N)N=C(N)N.Cl [MET, 3-(diaminomethylidene)-1,1-dimethylguanidine; hydrochloride] | did not show much effect on ROS levels | reduction in cell viability in a dose-dependent fashion | did not produce any significant apoptotic activity | no apoptosis but loss of cell membrane integrity | 80 ± 1.19 | reduction in cell viability in a dose-dependent fashion | 34.03 | did not show much effect on ROS levels | – | – | –
2 | O=C(O[C@@H]1Cc2c(O)cc(O)cc2O[C@@H]1c1cc(O)c(O)c(O)c1)c1cc(O)c(O)c(O)c1 [EGCG, [(2R,3R)-5,7-dihydroxy-2-(3,4,5-trihydroxyphenyl)-3,4-dihydro-2H-chromen-3-yl] 3,4,5-trihydroxybenzoate] | increased significantly | reduction in cell viability in a dose-dependent fashion | – | – | 94 ± 1.39 | reduction in cell viability in a dose-dependent fashion | – | increased significantly | did not produce any significant apoptotic activity | no apoptosis | did not result in significant inhibitory effects
